Patent US9669003B2, “Use of flavone and flavanone derivatives in preparation of sedative and hypnotic drugs” (priority 2012, dated 2017)
Marks after values point to notes of the source that are not given here.

Experiments:
Assay type in all cases: in vivo
Kunming mice [1] = test: Influence on autonomic activity of normal mice (ZIL-2 mice autonomic activity meter, counts within 10 min); details: intragastric, x ± s, n = 10; for Times of activities in 1 h after drug administration/10 min: 1 h after administration; for Times of activities in 2 h after drug administration/10 min: 2 h after administration; for Times of activities in 24 h after drug administration/10 min: 24 h after administration
From the text: (§1) 1.1 Animals for experiments: Kunming mice, weighting 18.9˜22.2 g for females, and 20.2˜23.0 g for males, licensed under SCXK-(Ji) 2007-0003, and provided by The experimental animal centre, Jilin University.
(§2) 1.2 Chemicals for experiments: The flavone derivatives provided in Examples 1-41 and the flavanone derivatives provided in Examples 42-71 are all formulated with 0.5% sodium carboxymethyl cellulose as solutions with required concentrations.
(§3) 1.3 Grouping of animals: 6420 animals are employed in the entire experiments and 2140 of the animals are randomly divided into 214 groups by gender, and the […] include: control group, low dosage group for each experimental drugs (25 mg/kg), medium dosage group for each experimental drugs (50 mg/kg), and high dosage group for each experimental drugs (100 mg/kg). Each group has 10 animals and either female or male constitutes half of the group. The groups are used in behavior observation and voluntary action observation. The other 4280 animals are randomly divided into 214 groups by gender respectively (the grouping way is the same with that described above). Each group has 20 animals and either female or male constitutes half of the group. In each group, 10 animals are used in hypnosis experimentations with pentobarbital sodium doses below the threshold, and the other 10 animals are used hypnosis experimentations with pentobarbital sodium doses at the threshold.
1.4 Experimental instrument and agents: ZIL-2 mice autonomic activity meter, production of Institute of Materia Medica of Chinese Academy of Medical Sciences; pentobarbital sodium, Lot: 100808, 25 g/bottle, Beijing Chemical Reagent Company equipment imported from Germany.
1.5.2 Influence on Autonomic Activity of Normal Mice
After observing the general behavior, in 1 h, 2 h and 24 h after drug administration, respectively, ZIL-2 mice autonomic activity meter is put respectively. Number of autonomic activities of each group of mice is measured within 10 min. Results among groups are compared.
(§4) Number of autonomic activities is detected by leneve Test for homogeneity of variance. If the homogeneity of variance is good (P>0.05), statistical analysis is performed with ANOVA. If ANOVA have statistical significance (P≦0.05), Dunnett's test for multiple comparisons analysis is performed. Number of animals of sleeping mice is applied of ANOVA. Incidence rate of animal asleep is applied of χ2 test. Sleep latency and sleep duration are recorded in min, averaged by group, represented by standard deviation, and undergo statistical analysis using ANOVA.

Kunming mice [2] = test: Influence on hypnosis effect with pentobarbital sodium doses below the threshold (25 mg/kg i.p.); details: pentobarbital sodium 25 mg/kg i.p. 60 min later, sleep observed in 30 min, n = 10
From the text: as §1, §2, §3
1.5.3 Influence on Hypnosis Effect with Mice Pentobarbital Sodium Doses Below the Threshold
(§5) The drug is intragastric administered in mice for single time, 2 animals of each group are given drug per round with the dosing interval of 40 min (±5 min). According to the administration round, in 60 min (±5 min) of each round after the drug administration, the animals were intraperitoneally injected 0.3% sodium pentobarbital 25 mg/kg, respectively. Sleep condition of the animals were observed within 30 min (under sleep determination standard of loss of righting reflex more than 1 min). After animals undergo loss of righting reflex, number of the animals is recorded, to calculate sleep percentage.
as §4

Kunming mice [3] = test: Influence on hypnosis effect with pentobarbital sodium doses at the threshold (50 mg/kg i.p.); details: pentobarbital sodium 50 mg/kg i.p. 60 min later, x ± s, n = 10
From the text: as §1, §2, §3
1.5.4 Influence on Hypnosis Effect with Mice Pentobarbital Sodium Doses at the Threshold
as §5, with “50” for “25”, “Time to fall asleep (sleep latency) and sleep duration” for “Sleep condition”, “recorded” for “observed”, “under” for “30 min (under”, “min.” for “min). After animals undergo loss of righting reflex, number of the animals is recorded, to calculate sleep percentage.”
as §4

[4] = test drug 25 mg/kg intragastric single dose
[5] = test drug 50 mg/kg intragastric single dose
[6] = test drug 100 mg/kg intragastric single dose
[7] = 25 mg/kg intragastric single dose
[8] = 50 mg/kg intragastric single dose
[9] = 100 mg/kg intragastric single dose

Row | SMILES | Times of activities in 1 h after drug administration/10 min (Kunming mice [1]; 25 mg/kg) | Times of activities in 2 h after drug administration/10 min (Kunming mice [1]; 25 mg/kg) | Times of activities in 24 h after drug administration/10 min (Kunming mice [1]; 25 mg/kg) | Times of activities in 1 h after drug administration/10 min (Kunming mice [1]; 50 mg/kg) | Times of activities in 2 h after drug administration/10 min (Kunming mice [1]; 50 mg/kg) | Times of activities in 24 h after drug administration/10 min (Kunming mice [1]; 50 mg/kg) | Times of activities in 1 h after drug administration/10 min (Kunming mice [1]; 100 mg/kg) | Times of activities in 2 h after drug administration/10 min (Kunming mice [1]; 100 mg/kg) | Times of activities in 24 h after drug administration/10 min (Kunming mice [1]; 100 mg/kg) | Number of sleeping animals (Kunming mice [2]; [4]) | rate of sleeping (%) (Kunming mice [2]; [4]) | Number of sleeping animals (Kunming mice [2]; [5]) | rate of sleeping (%) (Kunming mice [2]; [5]) | Number of sleeping animals (Kunming mice [2]; [6]) | rate of sleeping (%) (Kunming mice [2]; [6]) | duration of sleep (Kunming mice [3]; [7]) | time to sleep (Kunming mice [3]; [7]) | duration of sleep (Kunming mice [3]; [8]) | time to sleep (Kunming mice [3]; [8]) | duration of sleep (Kunming mice [3]; [9]) | further results
1 | COc1ccc(C2CC(=O)c3c(O)cccc3O2)cc1O (stereo not drawn) [Example 62] | 279.2 ± 45.4 /10 min | 264.9 ± 44.7 /10 min | 309.0 ± 81.9 /10 min | 237.4 ± 41.9 /10 min | 242.6 ± 49.2 /10 min | 297.2 ± 69.5 /10 min | 125.6 ± 32.8 /10 min | 170.3 ± 35.2 /10 min | 279.4 ± 86.3 /10 min | 3 | 30% | 4 | 40* % | 6 | 60** % | 34.29 ± 22.83 min | 4.87 ± 1.96 min | 57.24 ± 17.30 min | 4.21 ± 1.72 min | 65.03 ± 32.12 min | time to sleep (Kunming mice [3]; [9]): 3.78 ± 1.90 min
2 | COc1cc(OC)c2c(c1)OC(c1cc(OC)c(OC)c(OC)c1)CC2=O (stereo not drawn) [Example 46, 5,7,3′,4′,5′-penta methoxyl-flavanone] | 300.8 ± 49.2 /10 min | 299.2 ± 38.9 /10 min | 275.4 ± 81.3 /10 min | 264.4 ± 41.3 /10 min | 254.1 ± 53.2 /10 min | 284.7 ± 78.7 /10 min | 176.8 ± 43.2 /10 min | 163.4 ± 36.5 /10 min | 294.4 ± 67.5 /10 min | 3 | 30% | 6 | 60** % | 7 | 70** % | 27.80 ± 23.24 min | 5.52 ± 2.31 min | 47.16 ± 23.51 min | 4.22 ± 1.23 min | 55.58 ± 20.72 min | time to sleep (Kunming mice [3]; [9]): 3.96 ± 2.45 min
3 | COc1ccc(-c2cc(=O)c3c(OC)cc(O)cc3o2)cc1OC [Example 5, 7-hydroxyl-5,3′,4′-trimethoxyl-flavone] | 265.2 ± 50.1 /10 min | 243.2 ± 42.8 /10 min | 292.8 ± 82.1 /10 min | 175.4 ± 50.3 /10 min | 190.2 ± 56.8 /10 min | 295.3 ± 91.3 /10 min | 120.2 ± 39.0 /10 min | 116.3 ± 49.2 /10 min | 283.5 ± 94.0 /10 min | 6 | 60** % | 8 | 80*** % | 9 | 90*** % | 59.92 ± 17.44 min | 3.39 ± 1.71 min | 74.82 ± 22.78 min | 3.26 ± 1.47 min | 89.01 ± 18.25 min | time to sleep (Kunming mice [3]; [9]): 2.23 ± 1.19 min
4 | CCCc1cc(O)cc2c1C(=O)CC(c1ccc(-c3ccccc3)c([N+](=O)[O-])c1)O2 (stereo not drawn) [Example 70] | 233.5 ± 58.2 /10 min | 227.8 ± 32.9 /10 min | 316.0 ± 66.9 /10 min | 159.9 ± 45.0 /10 min | 141.0 ± 46.3 /10 min | 320.9 ± 81.4 /10 min | 129.3 ± 41.3 /10 min | 117.8 ± 39.6 /10 min | 320.7 ± 60.9 /10 min | 6 | 60** % | 8 | 80*** % | 9 | 90*** % | 47.57 ± 18.97 min | 3.60 ± 1.69 min | 61.38 ± 27.39 min | 3.21 ± 1.35 min | 73.09 ± 25.56 min | time to sleep (Kunming mice [3]; [9]): 2.28 ± 1.13 min
5 | COc1ccc(-c2oc3c(OC)c(OC)c(OC)c(OC)c3c(=O)c2OC)cc1OC [Example 41, 3,5,6,7,8,3′,4′-heptamethoxyl-flavone] | 285.2 ± 44.1 /10 min | 266.0 ± 40.6 /10 min | 307.2 ± 69.7 /10 min | 260.4 ± 37.9 /10 min | 245.5 ± 28.1 /10 min | 306.2 ± 81.3 /10 min | 198.6 ± 58.8 /10 min | 171.5 ± 56.7 /10 min | 291.5 ± 70.0 /10 min | 4 | 40* % | 6 | 60** % | 8 | 80*** % | 22.16 ± 16.23 min | 5.33 ± 2.25 min | 28.34 ± 17.13 min | 5.12 ± 2.09 min | 65.44 ± 37.54 min | time to sleep (Kunming mice [3]; [9]): 3.16 ± 1.23 min
